Here are results for one molecule from patent publication US20220194938A1, “NOVEL COMPOUNDS AND PHARMACEUTICAL COMPOSITIONS THEREOF FOR THE TREATMENT OF INFLAMMATORY DISORDERS” (GALAPAGOS NV, priority 2019, published 2022).

One data set has as its target T1, human IRAK-4 (Homo sapiens, UniProt Q9NWZ3).
T1 construct: purchased Carna Biosciences 09 145
T1 sequence (Q9NWZ3 1-460): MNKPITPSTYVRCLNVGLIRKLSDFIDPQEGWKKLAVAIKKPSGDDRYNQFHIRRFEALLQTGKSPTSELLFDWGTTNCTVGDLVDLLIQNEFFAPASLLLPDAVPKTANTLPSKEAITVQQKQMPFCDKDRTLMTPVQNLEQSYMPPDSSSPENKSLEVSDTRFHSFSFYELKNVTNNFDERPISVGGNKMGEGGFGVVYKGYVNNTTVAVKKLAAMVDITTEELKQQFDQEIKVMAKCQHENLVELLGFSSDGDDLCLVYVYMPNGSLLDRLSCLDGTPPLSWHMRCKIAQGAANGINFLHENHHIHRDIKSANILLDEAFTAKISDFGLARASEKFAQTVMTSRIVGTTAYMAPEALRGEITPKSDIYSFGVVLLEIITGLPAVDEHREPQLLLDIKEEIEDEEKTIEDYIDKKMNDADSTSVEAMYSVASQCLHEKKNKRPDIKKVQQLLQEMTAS
Kind of data set: Phosphorylation IC50 determination for human IRAK-4 (ADP-Glo kinase assay). The note with it: human IRAK-4, RIP140 substrate, Km ATP; read-out: IRAK4 ADPglo biochemical assay IC50. Here is the method: 3.1. Phosphorylation IC50 Determination for Human IRAK-4
The phosphorylation of the substrate RIP140 (SEQ ID1) by IRAK4 at Km ATP was detected with the ADP-Glo Kinase Assay (Promega, Cat #V9103), a luminescent kinase assay which measures the ADP formed from a kinase reaction. (Zegzouti et al. 2009) In a second step the kinase reaction was terminated and all the remaining ATP was depleted. In a final step the ADP was converted into ATP and this newly synthesized ATP was measured by using a luciferase/luciferin reaction with a luminescent reader. The luminescent signal positively correlated with kinase activity, in particular kinase inhibition giving a decrease of the luminescent signal.
For the semi-automated assay, the positive control (100% inhibition) was prepared by diluting 10 mM staurosporine stock mixture (20 μL) in water (3.8 mL) and DMSO (180 μL), thus resulting in a […] staurosporine solution at 1% DMSO (final concentration after further dilution in the kinase reaction).
For the automated assay, no pre-dilution of the 10 mM staurosporine stock was made. 10 mM staurosporine was spotted directly in the assay plate using acoustic dispensing and complemented with DMSO to result in a similar final concentration as mentioned above.
For the semi-automated assay, the negative control (0% inhibition) was prepared by mixing water (3.8 mL) and DMSO (200 μL) resulting in a final concentration of 1% DMSO after further dilution in the kinase reaction. For the automated assay no pre-dilution of DMSO was done. 100% DMSO was spotted directly on the assay plate.
The assay buffer solution was prepared at a concentration corresponding to 5 fold the final (most diluted) assay concentration by mixing a solution of 125 mM TRIS pH 7.5+0.05% Triton X-100+2.5 mM EGTA (5.27 mL) with 1M mgCl2 (72 μL), 1M DTT (57.6 μL), and 200 mM MnCl2 (360 μL).
For example, for the semi-automated method, the enzyme-substrate mixture was prepared by mixing water (3999 μL), assay buffer solution (1380 μL), 1 mM RIP140 (138 μL—SEQ ID1), and 200 ng/mL IRAK 4 (3.45 μL Carna Biosciences, 09 145).
For semi-automated method, the ATP mixture was prepared at a concentration corresponding to 2.5 fold the final (most diluted) assay concentration of the semi-automated method and 1.5 fold the final (most diluted) assay concentration of the automated method. For example, for the semi-automated method, the ATP mixture was prepared by mixing water (4126 μL), assay buffer solution (1380 μL), and 10 mM ATP (13.80 μL).
The assay was performed either in a semi-automated or fully automated manner. The assay volume and the incubation time of the ADP detection were different accordingly the method used.
3.1.3.1. Semi-Automated Assay
The compounds were prepared as a serial dilution of 10 point dose responses with 1/5 dilution steps in 100% DMSO starting from 2 mM highest concentration, diluted 1/20 in water. 1 μL was transferred dry to the assay plates.
On each assay plate 32 wells of each control (positive & negative) were added, followed by 2 μL enzyme-substrate mixture.
The reaction was started by adding 2 μL diluted ATP (final concentration Km ATP) on the assay plates. Plates were centrifuged for a few seconds at 1000 rpm followed by an incubation at r.t. for 120 min.
The reactions were stopped and the unconsumed ATP was depleted by adding 5 μL ADP-glo Reagent (Promega, Cat #V9103) to the reaction. The plates were quickly centrifuged at 1000 rpm and incubated at r.t. for 40 min corresponding to full ATP depletion.
The ADP was converted back to ATP and luciferase and luciferin were introduced to detect ATP by adding 10 μL kinase detection reagent (Promega, Cat #V9103) to the reaction. The plates were centrifuged for a few seconds at 1000 rpm and incubated at r.t. for a further 30 min.
Luminescent read out was performed on an Envision luminescent reader (Perkin Elmer). […]
For orientation: ADP-Glo turns the ADP formed in a reaction into a luminescent signal.

A further data set addresses T2, hERG channel (Homo sapiens, UniProt Q12809).
T2 construct: host or cells: HEK293
Description: hERG channel test - manual patch clamp assay. The note with it: 10 μM, HEK293 cells stably transfected with hERG, tail current. Format: cell-based. The protocol: 4.7 hERG Channel Test—Manual Patch Clamp Assay
The aim of this assay is to determine the in-vitro effects of a test compound on hERG current ([…]) expressed in Human Embryonic Kidney (HEK) cells (evaluation of the blocking profile of test substance on the IKr-like potassium current mediated by hERG channel stably transfected in a human cell line), which is linked to cardiac safety.
The test substance is dissolved in pure dimethylsulfoxide (DMSO) by cold stirring to give a stock solution concentrated 333-fold as compared with the highest concentration to be tested. This stock solution is used to prepare the other stock solutions in DMSO. Each stock solution is used to prepare the solutions containing the final concentrations tested by dilution in extracellular solution (0.1, 1, 10 and 100 μM). Final concentration of DMSO should not not exceed 0.3%.
All formulations are prepared in glass containers.
If a slight opalescence persists at the highest concentration, a 50 μM (instead of 100 μM) concentration is tested.
DMSO diluted in extracellular solution (at the different concentrations used in the final test substance solutions) is used as vehicle.
The extracellular solution is constituted as follows (mM): K-gluconate: 4 mM/Na-gluconate: 145 mM/Mg-gluconate: 2 mM/Ca-gluconate: 3.5 mM/HEPES: 5 mM/glucose: 5 mM/mannitol: 20 mM. The pH is adjusted with NaOH to 7.40±0.05.
Human embryonic kidney (HEK293) cells are stably transfected with the hERG clone (Creacell) and are maintained at 37° C. in a 5% CO2/95% air incubator. Cells used for the study are transferred to an experimental chamber of approximately 2 mL which is maintained at a temperature of 35±0.5° C. by a thermoelectric device (Harvard Apparatus: Type TC-344B) and mounted on the platform of an inverted microscope (Olympus: Type IX-51 or Leica DMI3000 B). Cells are continuously superfused with Tyrode's solution constituted as follows (mM): NaCl: 145/KCl: 4/HEPES: 5/glucose: 5/CaCl2:1/MgCl2: 1.
Ionic currents from hERG-transfected cells are measured using the whole cell configuration of the patch clamp technique. Glass pipettes are pulled from borosilicate glass by a vertical puller (Sutter Instruments: Type P30). Pipette tip resistance is approximately 1.5 to 3.5 MΩ when filled with internal solution constituted as follows (mM): K-gluconate: 145/Mg-gluconate: 1/EGTA: 2/HEPES:5/K2ATP: 2.
The pipettes are connected to the input stage of a patch-clamp amplifier (Axon Instruments: Multiclamp 700B-1). Stimulation, data recording and analysis are performed using specialized Axon Instruments software (pClamp 9.2.0. or pClamp 10.3.0.2).
After rupture of the cell membrane (entering whole-cell mode), cells are stimulated every 10 seconds using the following protocol: 500 ms pulse to +10 mV from a holding potential of −80 mV followed by a 500 ms pulse to −40 mV during which tail current is measured.
Once the current under control conditions is stable, recordings are taken before (control) and after addition of the test substance. The effect of the test substance on tail current is monitored continuously until steady-state is reached. The peak tail current amplitude is averaged for 3 stimuli.
The following parameters are measured: • Cell capacitance (pF). • Peak tail current amplitude (pA).
Peak tail current measurements are normalized using the cell capacitance as an index of cell surface.
The cells will be considered as valid if cell capacitance <80 pF, access resistance <20 MΩ and holding current >−200 pA.
Results are expressed as absolute values and as percentage change from control (percentage of tail current inhibition).
The test substance is studied at 4 ascending concentrations on 3 hERG-transfected cells.
The concentration of test substance inducing 50% of inhibition (IC50) of tail current is determined, if possible, from each individual concentration-response curve. The equation is of the following form: […]
In general terms: Block of hERG is tested as a sign of cardiac risk.

T2 sequence (Q12809 whole entry): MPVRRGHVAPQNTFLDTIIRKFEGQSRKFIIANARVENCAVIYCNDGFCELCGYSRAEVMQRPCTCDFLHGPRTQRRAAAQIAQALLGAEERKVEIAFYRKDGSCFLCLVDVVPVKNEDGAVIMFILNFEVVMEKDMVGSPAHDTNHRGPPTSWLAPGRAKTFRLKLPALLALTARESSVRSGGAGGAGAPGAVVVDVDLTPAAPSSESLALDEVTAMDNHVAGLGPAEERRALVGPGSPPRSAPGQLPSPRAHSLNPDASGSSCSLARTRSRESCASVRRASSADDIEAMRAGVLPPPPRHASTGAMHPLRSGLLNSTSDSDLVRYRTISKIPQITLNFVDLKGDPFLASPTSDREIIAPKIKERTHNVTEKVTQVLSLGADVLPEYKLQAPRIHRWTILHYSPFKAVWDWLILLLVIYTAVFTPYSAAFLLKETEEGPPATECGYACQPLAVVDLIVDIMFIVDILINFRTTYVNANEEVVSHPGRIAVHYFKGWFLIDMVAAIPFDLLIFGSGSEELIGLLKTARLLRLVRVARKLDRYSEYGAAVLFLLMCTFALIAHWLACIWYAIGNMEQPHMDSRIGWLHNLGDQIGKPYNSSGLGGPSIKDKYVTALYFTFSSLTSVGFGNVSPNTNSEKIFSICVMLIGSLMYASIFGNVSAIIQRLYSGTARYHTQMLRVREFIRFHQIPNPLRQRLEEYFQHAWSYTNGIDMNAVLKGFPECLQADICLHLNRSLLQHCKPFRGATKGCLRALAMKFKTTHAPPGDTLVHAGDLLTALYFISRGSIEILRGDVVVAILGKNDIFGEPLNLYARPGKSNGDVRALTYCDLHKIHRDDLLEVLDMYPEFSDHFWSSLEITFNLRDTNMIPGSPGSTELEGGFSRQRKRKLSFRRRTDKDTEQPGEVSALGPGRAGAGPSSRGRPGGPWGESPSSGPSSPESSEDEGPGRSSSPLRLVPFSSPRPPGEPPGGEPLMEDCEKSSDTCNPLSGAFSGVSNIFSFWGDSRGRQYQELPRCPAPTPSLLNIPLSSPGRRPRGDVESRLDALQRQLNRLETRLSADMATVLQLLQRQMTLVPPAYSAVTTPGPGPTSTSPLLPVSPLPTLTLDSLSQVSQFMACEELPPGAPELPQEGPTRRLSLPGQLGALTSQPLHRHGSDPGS

One may read the IC50 as the point on the concentration scale where inhibition reaches its midpoint. With `CC(C)(O)CCc1cn2cc(NC(=O)c3cccc(C(F)(F)F)n3)c(C(=O)NCC(F)(F)F)cc2n1` [Compound 41, 2-(3-hydroxy-3-methylbutyl)-N-(2,2,2-trifluoroethyl)-6-(6-(trifluoromethyl)picolinamido)imidazo[1,2-a]pyridine-7-carboxamide], on human IRAK-4, the IC50 was 0.1 to 5 nM. The “hERG Manual Patch Clamp Single dose PIN (10 μM)” value at hERG channel is on record as −17%.
